From patent US20110224210A1, “NOVEL BIS-AMIDES AS ANTI-MALARIAL AGENTS” (priority 2008, published 2011)

Each compound was assayed on P. falciparum K1 (strain resistant to chloroquine and pyrimethamine), erythrocytic stages (assay: Plasmodium falciparum in vitro assay, [3H] hypoxanthine incorporation). Details: Plasmodium falciparum, K1, P. falciparum strain K1; [3H] hypoxanthine incorporation; read-out: IC50 (nM) on K1.
Format: cell-based
Outline: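 K1 strain parasites grown in human red cells, 2.5% haematocrit, 0.3% parasitaemia, 37 °C, 4% CO2/3% O2; compounds in seven serial doubling dilutions.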

| IC50 [nM] | Compound |
| --- | --- |
| 494 | COCCN(C)C(=O)[C@H](Cc1ccccc1)N(Cc1ccc(N2CCOCC2)cc1)C(=O)C=Cc1csnn1 [Example 66, (S)-N-{1-[(2-Methoxy-ethyl)-methyl-carbamoyl]-2-phenyl-ethyl}-N-(4-morpholin-4-yl-benzyl)-3-[1,2,3]thiadiazol-4-yl-acrylamide] |
| < 8 | COCCN(C)C(=O)[C@H](Cc1ccccc1)N(Cc1ccc(N2CCOCC2)cc1)C(=O)C=Cc1ccc(C(F)(F)F)cn1 [Example 67, (S)-N-{1-[(2-Methoxy-ethyl)-methyl-carbamoyl]-2-phenyl-ethyl}-N-(4-morpholin-4-yl-benzyl)-3-(5-trifluoromethyl-pyridin-2-yl)-acrylamide] |
| 156 | COCCN(C)C(=O)[C@H](Cc1ccccc1)N(Cc1ccc(N2CCOCC2)cc1)C(=O)C=Cc1ccc(C)cn1 [Example 68, (S)-N-{1-[(2-Methoxy-ethyl)-methyl-carbamoyl]-2-phenyl-ethyl}-3-(5-methyl-pyridin-2-yl)-N-(4-morpholin-4-yl-benzyl)-acrylamide] |
| 169 | COCCN(C)C(=O)[C@H](Cc1ccccc1)N(Cc1ccc(N2CCOCC2)cc1)C(=O)C=Cc1ccc(C)nc1 [Example 69, (S)-N-{1-[(2-Methoxy-ethyl)-methyl-carbamoyl]-2-phenyl-ethyl}-3-(6-methyl-pyridin-3-yl)-N-(4-morpholin-4-yl-benzyl)-acrylamide] |
| 144 | COCCN(C)C(=O)[C@H](Cc1ccccc1)N(Cc1ccc(N2CCOCC2)cc1)C(=O)C=Cc1ccc(Cl)nc1 [Example 70, (S)-3-(6-Chloro-pyridin-3-yl)-N-{1-[(2-methoxy-ethyl)-methyl-carbamoyl]-2-phenyl-ethyl}-N-(4-morpholin-4-yl-benzyl)-acrylamide] |
| 54 | COCCN(C)C(=O)[C@H](Cc1ccccc1)N(Cc1ccc(N2CCOCC2)cc1)C(=O)C=Cc1ccc(OC)nc1 [Example 71, (S)-N-{1-[(2-Methoxy-ethyl)-methyl-carbamoyl]-2-phenyl-ethyl}-3-(6-methoxy-pyridin-3-yl)-N-(4-morpholin-4-yl-benzyl)-acrylamide] |
| 344 | COCCN(C)C(=O)[C@H](Cc1ccccc1)N(Cc1ccc(N2CCOCC2)cc1)C(=O)C=Cc1cnc(OC)nc1 [Example 72, (S)-N-{1-[(2-Methoxy-ethyl)-methyl-carbamoyl]-2-phenyl-ethyl}-3-(2-methoxy-pyrimidin-5-yl)-N-(4-morpholin-4-yl-benzyl)-acrylamide] |
| 156 | COCCN(C)C(=O)[C@H](Cc1ccccc1)N(Cc1ccc(-c2ccccn2)cc1)C(=O)C=Cc1ccn(C)n1 [Example 73, (S)-N-{1-[(2-Methoxy-ethyl)-methyl-carbamoyl]-2-phenyl-ethyl}-3-(1-methyl-1H-pyrazol-3-yl)-N-(4-pyridin-2-yl-benzyl)-acrylamide] |
| 40 | COCCN(C)C(=O)[C@H](Cc1ccccc1)N(Cc1ccc(-c2ccccn2)cc1)C(=O)C=Cc1cc(C)nn1C [Example 74, (S)-3-(2,5-Dimethyl-2H-pyrazol-3-yl)-N-{1-[(2-methoxy-ethyl)-methyl-carbamoyl]-2-phenyl-ethyl}-N-(4-pyridin-2-yl-benzyl)-acrylamide] |
| 11 | COCCN(C)C(=O)[C@H](Cc1ccccc1)N(Cc1ccc(-c2ccccn2)cc1)C(=O)C=Cc1c(C)nn(C)c1C [Example 75, (S)-N-{1-[(2-Methoxy-ethyl)-methyl-carbamoyl]-2-phenyl-ethyl}-N-(4-pyridin-2-yl-benzyl)-3-(1,3,5-trimethyl-1H-pyrazol-4-yl)-acrylamide] |
| 163 | COCCN(C)C(=O)[C@H](Cc1ccccc1)N(Cc1ccc(-c2ccccn2)cc1)C(=O)C=Cc1cnc(C)n1C [Example 76, (S)-3-(2,3-Dimethyl-3H-imidazol-4-yl)-N-{1-[(2-methoxy-ethyl)-methyl-carbamoyl]-2-phenyl-ethyl}-N-(4-pyridin-2-yl-benzyl)-acrylamide] |
| 23 | COCCN(C)C(=O)[C@H](Cc1ccccc1)N(Cc1ccc(-c2ccccn2)cc1)C(=O)C=Cc1sc(C)nc1C [Example 77, (S)-3-(2,4-Dimethyl-thiazol-5-yl)-N-{1-[(2-methoxy-ethyl)-methyl-carbamoyl]-2-phenyl-ethyl}-N-(4-pyridin-2-yl-benzyl)-acrylamide] |
| 47 | COCCN(C)C(=O)[C@H](Cc1ccccc1)N(Cc1ccc(-c2ccccn2)cc1)C(=O)C=Cc1csc(C)n1 [Example 78, (S)-N-{1-[(2-Methoxy-ethyl)-methyl-carbamoyl]-2-phenyl-ethyl}-3-(2-methyl-thiazol-4-yl)-N-(4-pyridin-2-yl-benzyl)-acrylamide] |
| 288 | COCCN(C)C(=O)[C@H](Cc1ccccc1)N(Cc1ccc(-c2ccccn2)cc1)C(=O)C=Cc1cc(C)on1 [Example 79, (S)-N-{1-[(2-Methoxy-ethyl)-methyl-carbamoyl]-2-phenyl-ethyl}-3-(5-methyl-isoxazol-3-yl)-N-(4-pyridin-2-yl-benzyl)-acrylamide] |
| 44 | COCCN(C)C(=O)[C@H](Cc1ccccc1)N(Cc1ccc(-c2ccccn2)cc1)C(=O)C=Cc1c(C)noc1C [Example 80, (S)-3-(3,5-Dimethyl-isoxazol-4-yl)-N-{1-[(2-methoxy-ethyl)-methyl-carbamoyl]-2-phenyl-ethyl}-N-(4-pyridin-2-yl-benzyl)-acrylamide] |
| 102 | COCCN(C)C(=O)[C@H](Cc1ccccc1)N(Cc1ccc(-c2ccccn2)cc1)C(=O)C=Cc1nc(C)oc1C [Example 81, (S)-3-(2,5-Dimethyl-oxazol-4-yl)-N-{1-[(2-methoxy-ethyl)-methyl-carbamoyl]-2-phenyl-ethyl}-N-(4-pyridin-2-yl-benzyl)-acrylamide] |
| 99 | COCCN(C)C(=O)[C@H](Cc1ccccc1)N(Cc1ccc(-c2ccccn2)cc1)C(=O)C=Cc1ccc(OC)nn1 [Example 82, (S)-N-{1-[(2-Methoxy-ethyl)-methyl-carbamoyl]-2-phenyl-ethyl}-3-(6-methoxy-pyridazin-3-yl)-N-(4-pyridin-2-yl-benzyl)-acrylamide] |
| 209 | COCCN(C)C(=O)[C@H](Cc1ccccc1)N(Cc1ccc(-c2ccccn2)cc1)C(=O)C=Cc1cnc(C)nc1 [Example 83, (S)-N-{1-[(2-Methoxy-ethyl)-methyl-carbamoyl]-2-phenyl-ethyl}-3-(2-methyl-pyrimidin-5-yl)-N-(4-pyridin-2-yl-benzyl)-acrylamide] |
| 27 | COCCN(C)C(=O)[C@H](Cc1ccccc1)N(Cc1ccc(-c2ccccn2)cc1)C(=O)C=Cc1ccc(C)nc1 [Example 84, (S)-N-{1-[(2-Methoxy-ethyl)-methyl-carbamoyl]-2-phenyl-ethyl}-3-(6-methyl-pyridin-3-yl)-N-(4-pyridin-2-yl-benzyl)-acrylamide] |
| 31 | COCCN(C)C(=O)[C@H](Cc1ccccc1)N(Cc1ccc(-c2ccccn2)cc1)C(=O)C=Cc1ccc(Cl)nc1 [Example 85, (S)-3-(6-Chloro-pyridin-3-yl)-N-{1-[(2-methoxy-ethyl)-methyl-carbamoyl]-2-phenyl-ethyl}-N-(4-pyridin-2-yl-benzyl)-acrylamide] |
| 27 | COCCN(C)C(=O)[C@H](Cc1ccccc1)N(Cc1ccc(-c2ccccn2)cc1)C(=O)C=Cc1ccc(C)cn1 [Example 86, (S)-N-{1-[(2-Methoxy-ethyl)-methyl-carbamoyl]-2-phenyl-ethyl}-3-(5-methyl-pyridin-2-yl)-N-(4-pyridin-2-yl-benzyl)-acrylamide] |
| < 8 | COCCN(C)C(=O)[C@H](Cc1ccccc1)N(Cc1ccc(-c2ccccn2)cc1)C(=O)C=Cc1ccc(OC)nc1 [Example 87, (S)-N-{1-[(2-Methoxy-ethyl)-methyl-carbamoyl]-2-phenyl-ethyl}-3-(6-methoxy-pyridin-3-yl)-N-(4-pyridin-2-yl-benzyl)-acrylamide] |
| 45 | COCCN(C)C(=O)[C@H](Cc1ccccc1)N(Cc1ccc(-c2ccccn2)cc1)C(=O)C=Cc1cnc(C(F)(F)F)nc1 [Example 88, (S)-N-{1-[(2-Methoxy-ethyl)-methyl-carbamoyl]-2-phenyl-ethyl}-N-(4-pyridin-2-yl-benzyl)-3-(2-trifluoromethyl-pyrimidin-5-yl)-acrylamide] |
| < 8 | COCCN(C)C(=O)[C@H](Cc1ccccc1)N(Cc1ccc(-c2ccccn2)cc1)C(=O)C=Cc1ccc(C(F)(F)F)cn1 [Example 89, (S)-N-{1-[(2-Methoxy-ethyl)-methyl-carbamoyl]-2-phenyl-ethyl}-N-(4-pyridin-2-yl-benzyl)-3-(5-trifluoromethyl-pyridin-2-yl)-acrylamide] |
| 43 | COCCN(C)C(=O)[C@H](Cc1ccccc1)N(Cc1ccc(-c2ccccn2)cc1)C(=O)C=Cc1cnn(C)c1C [Example 90, (S)-3-(1,5-Dimethyl-1H-pyrazol-4-yl)-N-{1-[(2-methoxy-ethyl)-methyl-carbamoyl]-2-phenyl-ethyl}-N-(4-pyridin-2-yl-benzyl)-acrylamide] |
| 26 | COCCN(C)C(=O)[C@H](Cc1ccccc1)N(Cc1ccc(-c2ccncc2)cc1)C(=O)C=Cc1ccn(C)n1 [Example 91, (S)-N-{1-[(2-Methoxy-ethyl)-methyl-carbamoyl]-2-phenyl-ethyl}-3-(1-methyl-1H-pyrazol-3-yl)-N-(4-pyridin-4-yl-benzyl)-acrylamide] |
| 23 | COCCN(C)C(=O)[C@H](Cc1ccccc1)N(Cc1ccc(-c2ccncc2)cc1)C(=O)C=Cc1cnc(C)n1C [Example 92, (S)-3-(2,3-Dimethyl-3H-imidazol-4-yl)-N-{1-[(2-methoxy-ethyl)-methyl-carbamoyl]-2-phenyl-ethyl}-N-(4-pyridin-4-yl-benzyl)-acrylamide] |
| 13 | COCCN(C)C(=O)[C@H](Cc1ccccc1)N(Cc1ccc(-c2ccncc2)cc1)C(=O)C=Cc1sc(C)nc1C [Example 93, (S)-3-(2,4-Dimethyl-thiazol-5-yl)-N-{1-[(2-methoxy-ethyl)-methyl-carbamoyl]-2-phenyl-ethyl}-N-(4-pyridin-4-yl-benzyl)-acrylamide] |
| 15 | COCCN(C)C(=O)[C@H](Cc1ccccc1)N(Cc1ccc(-c2ccncc2)cc1)C(=O)C=Cc1csc(C)n1 [Example 94, (S)-N-{1-[(2-Methoxy-ethyl)-methyl-carbamoyl]-2-phenyl-ethyl}-3-(2-methyl-thiazol-4-yl)-N-(4-pyridin-4-yl-benzyl)-acrylamide] |
